Reference: patent publication US20250179017A1 (GUANGDONG NEWOPP BIOPHARMACEUTICALS CO., LTD., priority 2022, published 2025)

Key:
[1] = biological target: T1, human EP2 (PTGER2) (Homo sapiens, UniProt P43116); test: EP2 antagonist assay (HEK-293 CNG membrane potential cAMP assay / 293T SEAP reporter assay, PGE2-stimulated); type: cell-based; conditions: EP2 antagonist activity; concentration for 50% inhibition of signal compared to DMSO
T1 construct: Cayman Chemical (Human EP2 Reporter Assay Kit)
Outline: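 Two formats. In a CRE-SEAP reporter assay, reverse-transfected 293T cells received compound with PGE2 (13 nM final) for 6-8 h, then luminescence was read. In the ACTOne CNG format, HEK-293 cells were preincubated with compound for 15 min at RT, stimulated with 5 nM PGE2 for 30 min, and read by membrane-potential dye fluorescence. IC50 was taken versus DMSO.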

[2] = biological target: T2, human EP4 (EP4R) (Homo sapiens, UniProt P35408); test: EP4 antagonist assay (HEK-293 CNG membrane potential cAMP assay / 293T SEAP reporter assay, PGE2-stimulated); type: cell-based; conditions: EP4 antagonist activity; concentration for inhibition of signal compared to DMSO
T2 construct: Cayman Chemical (Human EP4 Reporter Assay Kit)
Excerpt: 1. The HEK-293 CNG (Cyclic Nucleotide Gated) cell line expressing a modified CNG channel that leads to cell membrane depolarization in response to elevated intracellular cAMP levels, which can be measured using a fluorescent membrane potential dye, was engineered to express human EP2 (PTGER2) or EP4 (EP4R). The resulting cell line ACTOne™ PTGER2 or ACTOne™ EP4R as well as the fluorescent membrane potential dye were purchased from eEnzyme (Gaithersburg, MD, US) and used in this assay. Briefly, cells were plated at 1.2×10^4 cells/well in 20 μL DMEM supplemented with 2% Fetal Bovine Serum (FBS, VWR International), 1x Penicillin/Streptomycin (GenClone), 0.2 μg/mL puromycin (InvivoGen) and 50 μg/mL G418 (InvivoGen) on a 384 well plate (Greiner). The next day, cells were dye-loaded with 20 μL/well of 1x Dye-loading solution (eENZYME) following the manufacturer's instruction. After 2 hours of incubation at room temperature (RT) in the dark, a pre-read was made to obtain the background signals using CLARIOstar plate reader (BMG LABTECH, Germany) with the following filter settings: excitation=530/20 nm, emission=590/20 nm. Next, a serial dilution of compound (plus a DMSO control) were added to the plate (5 μL/well) and the reaction was incubated at RT for 15 min before adding 5 μL of PGE2 to every well for a final concentration of 5 nM. All wells were duplicated. The plate was then further incubated at RT for 30 min prior to a final read with the same machine settings. Background-subtracted signals were used to calculate IC50 values.
2. Human EP2 and EP4 Reporter Assay Kits were purchased from Cayman Chemical (Ann Arbor, MI, USA). The assay was performed following the provided User Manual. Briefly, a reverse transfection was performed by seeding 6.0×10^4 of 293T cells (ATCC) to each well of the provided Strip Plate coated with a proprietary transfection complex containing DNA constructs for expressing human EP2 or EP4 and a cAMP response element regulated secreted alkaline phosphatase (SEAP) reporter, in 200 μL DMEM supplemented with 2% FBS and incubated for 20-24 hours at 37° C. with 5% CO2. After the incubation, the culture medium was carefully removed, and the cells were replenished with 150 μL pre-warmed serum-free medium. PGE2 and test compounds were prepared together at 4x the desired final concentration, and 50 μL was added to each assigned well with the final concentration of 13 nM and 2 nM PGE2 for EP2 and EP4 assay, respectively. After 6-8 hours of incubation, 10 μL media from each well was transferred to corresponding well of a new plate, which was then sealed and incubated at 65° C. for 30 min. The plate was then cooled down to RT and 50 μL SEAP substrate was added to each well. Luminescence signal was measured using a CLARIOstar plate reader.
The IC50 value was determined as the concentration for […] inhibition of signal compared to DMSO (A: IC50≤100 nM; B: IC50 between 100 nM and 1,000 nM; C: IC50≥1,000 nM).

T1 sequence (P43116 whole entry): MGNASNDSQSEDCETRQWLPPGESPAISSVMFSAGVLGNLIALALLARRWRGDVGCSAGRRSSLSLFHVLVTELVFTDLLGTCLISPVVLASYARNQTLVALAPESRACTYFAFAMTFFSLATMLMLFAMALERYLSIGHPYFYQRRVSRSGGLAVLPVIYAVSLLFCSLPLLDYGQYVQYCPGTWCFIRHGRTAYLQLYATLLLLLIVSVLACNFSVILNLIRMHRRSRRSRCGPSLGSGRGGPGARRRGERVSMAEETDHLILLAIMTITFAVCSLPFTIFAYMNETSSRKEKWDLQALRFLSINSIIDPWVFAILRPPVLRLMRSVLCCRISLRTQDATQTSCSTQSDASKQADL
T2 sequence (P35408 whole entry): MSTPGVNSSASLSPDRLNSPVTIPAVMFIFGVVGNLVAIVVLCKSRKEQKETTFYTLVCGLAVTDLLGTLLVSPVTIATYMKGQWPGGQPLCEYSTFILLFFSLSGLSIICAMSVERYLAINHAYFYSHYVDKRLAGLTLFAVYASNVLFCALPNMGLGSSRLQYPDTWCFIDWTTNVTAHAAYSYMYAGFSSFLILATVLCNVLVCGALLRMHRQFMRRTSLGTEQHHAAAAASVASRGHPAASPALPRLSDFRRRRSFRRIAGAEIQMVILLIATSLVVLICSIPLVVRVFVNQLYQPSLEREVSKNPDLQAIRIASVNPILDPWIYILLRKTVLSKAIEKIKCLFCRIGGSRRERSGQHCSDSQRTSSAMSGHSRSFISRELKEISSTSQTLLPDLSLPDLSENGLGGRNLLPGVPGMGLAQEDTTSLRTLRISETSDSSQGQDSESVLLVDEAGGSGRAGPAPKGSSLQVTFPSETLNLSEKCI

Row | Structure (SMILES) | IC50 [1] [nM] | IC50 [2] [nM]
1 | C[C@H](NC(=O)c1cc(-c2cc(F)cc(F)c2)cc2cnn(Cc3ccc4ccccc4c3)c12)c1ccc(C(=O)O)cc1 [Example 169, (S)-4-(1-(5-(3,5-difluorophenyl)-1-(naphthalen-2-ylmethyl)-1H-indazole-7-carboxamido)ethyl)benzoic acid] | < 100 | ≤ 100
2 | O=C(O)c1ccc(CNC(=O)c2cc(-c3ccc(F)cc3)cc3nnn(Cc4ccc(C(F)(F)F)cc4)c23)cc1 [Example 175] | < 100 | ≤ 100
3 | O=C(O)c1ccc(CNC(=O)c2cc(-c3cc(F)cc(F)c3)cc3nnn(Cc4ccc(C(F)(F)F)cc4)c23)cc1 [Example 176, ((5-(3,5-difluorophenyl)-1-(4-(trifluoromethyl)benzyl)-1H-benzo[d][1,2,3]triazole-7-carboxamido)methyl)benzoic acid] | < 100 | ≤ 100
4 | C[C@H](NC(=O)c1cc(-c2ccc(F)cc2)cc2nnn(Cc3ccc(C(F)(F)F)cc3)c12)c1ccc(C(=O)O)cc1 [Example 180, (S)-4-(1-(5-(4-fluorophenyl)-1-(4-(trifluoromethyl)benzyl)-1H-benzo[d][1,2,3]triazole-7-carboxamido)ethyl)benzoic acid] | < 100 | ≤ 100
5 | O=C(O)c1ccc(CNC(=O)c2cc(-c3ccccc3)cc3cnn(Cc4ccc(-c5ccc(F)cc5)cc4)c23)cc1 [Example 184, 4-((1-((4′-fluoro-[1,1′-biphenyl]-4-yl)methyl)-5-phenyl-1H-indazole-7-carboxamido)methyl)benzoic acid] | < 100 | ≤ 100
6 | O=C(O)c1ccc(CNC(=O)c2cc(-c3ccc(F)c(F)c3)cc3ccn(Cc4ccc(-c5ccccc5)cc4)c23)cc1 [Example 188, 4-((1-([1,1′-biphenyl]-4-ylmethyl)-5-(3,4-difluorophenyl)-1H-indole-7-carboxamido)methyl)benzoic acid] | < 100 | ≤ 100
7 | C[C@H](NC(=O)c1cc(-c2ccccc2)cc2nnn(Cc3ccc4ccccc4c3)c12)c1ccc(C(=O)O)cc1 [Example 189] | < 100 | ≤ 100
8 | O=C(O)c1ccc(CNC(=O)c2cc(-c3ccccc3)cc3cnn(Cc4ccc(-c5ccccc5)cc4)c23)cc1 [Example 190, 4-((1-([1,1′-biphenyl]-4-ylmethyl)-5-phenyl-1H-indazole-7-carboxamido)methyl)benzoic acid] | < 100 | ≤ 100
9 | O=C(O)c1ccc(CNC(=O)c2cc(-c3ccc(F)cc3)cc3cnn(Cc4ccc(-c5ccccc5)cc4)c23)cc1 [Example 191, 4-((1-([1,1′-biphenyl]-4-ylmethyl)-5-(4-fluorophenyl)-1H-indazole-7-carboxamido)methyl)benzoic acid] | < 100 | ≤ 100
10 | O=C(NC[C@H]1CC[C@H](C(=O)O)CC1)c1cc(-c2ccccc2)cc2cnn(Cc3cccc(C(F)(F)F)c3)c12 [Example 221, (1r,4r)-4-((5-phenyl-1-(3-(trifluoromethyl)benzyl)-1H-indazole-7-carboxamido)methyl)cyclohexane-1-carboxylic acid] | < 100 | ≤ 100
11 | C[C@H](NC(=O)c1cc(-c2ccccc2)cc2cnn(Cc3cccc(C(F)(F)F)c3)c12)[C@H]1CC[C@H](C(=O)O)CC1 [Example 223, (1S,4r)-4-((S)-1-(5-phenyl-1-(3-(trifluoromethyl)benzyl)-1H-indazole-7-carboxamido)ethyl)cyclohexane-1-carboxylic acid] | ≥ 1000 | ≤ 100
12 | C[C@@H](NC(=O)c1cc(-c2ccccc2)cc2cnn(Cc3cccc(C(F)(F)F)c3)c12)[C@H]1CC[C@H](C(=O)O)CC1 [Example 224, (1R,4r)-4-((R)-1-(5-phenyl-1-(3-(trifluoromethyl)benzyl)-1H-indazole-7-carboxamido)ethyl)cyclohexane-1-carboxylic acid] | < 100 | ≤ 100
